This note sets out measurements from patent US12527754B2, “Methods and compositions for preventing and treating metabolic syndrome induced by antipsychotic treatment and related diseases and conditions” (Tufts Medical Center, Inc., priority 2018, dated 2026).

The structures appear in SMILES notation.

Assay [1] is described as follows: MetS induced by high-fat diet (HFD) in mice. The assay is classed as in vivo. The following applies: C57Bl/j male mice on HFD, benserazide 50 mg/day p.o., 12 weeks. As to the method:
In other experiments, we conducted a pre-clinical trial of benserazide on the development of MetS induced by high-fat diet (HFD). HFD was fed to C57Bl/j male mice (6 weeks of age). Benserazide, 50 mg/day, p.o., was administered for 12 weeks (five days/week). Differences (p<0.05) were considered as statistically significant (Mann-Whitney two-tailed test).

For assay [2] the following is noted: GTT at day 71; C57BL female mice, N = 10.
Method: (§1) C57BL female mice (n=10 mice in each group) were treated with olanzapine (4 mg/kg, po) (control) or with a combination of olanzapine (4 mg/kg, po) and benserazide (100 mg/day, po), 5 days per week for 10 weeks.
(§2) Body weight was checked two times per week. Glucose tolerance, a marker of IR, was determined by a glucose tolerance test (GTT) at the end of the study (day 71). In addition, blood samples were analyzed for cholesterol (total) and triglycerides.
The conditions of assay [3]: C57BL female mice, N = 10; end of 10-week treatment.
Method: as §1, §2

`NC(CO)C(=O)NNCc1ccc(O)c(O)c1O` (centres unmarked) [Benserazide, seryl-(2,3,4-trihydroxybenzyl)-hydrazide]: in assay [1] (five days/week), the “Elevation of blood cholesterol induced by HFD, change” value is given as −17%; the “Elevation of triglycerides induced by HFD, change” value is recorded as −25%; the “Excessive weight gain induced by HFD, change” value is −40%. The “Glucose tolerance impairment induced by HFD” value in assay [1] (result in words) was “attenuated”. Further, for the setting “benserazide 100 mg/day po with olanzapine 4 mg/kg po, 10 weeks, result in words”, the “Effect on weight gain induced by olanzapine” value is given as “attenuated weight gain”.

Consider `Cc1cc2c(s1)Nc1ccccc1N=C2N1CCN(C)CC1` [Olanzapine], for which, in assay [2], the “Glucose levels 90 minutes after ingestion of sugar” value is 520.55 ± 15.63 and the “Glucose levels baseline (before ingestion of sugar)” value was 183.25 ± 10.49. Where the note is “C57BL female mice, n = 10, olanzapine 4 mg/kg po with or without benserazide 100 mg/day po, 5 days per week for 10 weeks, Day 1”, the “Body weight, Day 1” value turned out to be 17.4 ± 0.13. Also, the “Body weight, Day 71” value (C57BL female mice, n = 10, olanzapine 4 mg/kg po with or without benserazide 100 mg/day po, 5 days per week for 10 weeks, Day 71) was 34.0 ± 0.09. Also, in assay [3], the “Cholesterol (total, blood)” value was determined as 172.33 ± 4.536 and the “Triglycerides (blood)” value is 151.00 ± 5.37.
